Measurements reported in patent US20140010939A1, “Sweetness Enhancers, Sweetener Compositions, Methods of Making the Same and Consumables Containing the Same” (Nutrinova Nutrition Specialties & Food Ingredients GmbH, priority 2011, published 2014).
“Also recorded” adds a separate entry of the source.

Target: T1, heterodimeric hT1R2/hT1R3 sweet taste receptor (Homo sapiens, UniProt Q7RTX0+Q8TE23)
T1 construct: expressed in transfected cells
T1 sequence (Q8TE23 20-839): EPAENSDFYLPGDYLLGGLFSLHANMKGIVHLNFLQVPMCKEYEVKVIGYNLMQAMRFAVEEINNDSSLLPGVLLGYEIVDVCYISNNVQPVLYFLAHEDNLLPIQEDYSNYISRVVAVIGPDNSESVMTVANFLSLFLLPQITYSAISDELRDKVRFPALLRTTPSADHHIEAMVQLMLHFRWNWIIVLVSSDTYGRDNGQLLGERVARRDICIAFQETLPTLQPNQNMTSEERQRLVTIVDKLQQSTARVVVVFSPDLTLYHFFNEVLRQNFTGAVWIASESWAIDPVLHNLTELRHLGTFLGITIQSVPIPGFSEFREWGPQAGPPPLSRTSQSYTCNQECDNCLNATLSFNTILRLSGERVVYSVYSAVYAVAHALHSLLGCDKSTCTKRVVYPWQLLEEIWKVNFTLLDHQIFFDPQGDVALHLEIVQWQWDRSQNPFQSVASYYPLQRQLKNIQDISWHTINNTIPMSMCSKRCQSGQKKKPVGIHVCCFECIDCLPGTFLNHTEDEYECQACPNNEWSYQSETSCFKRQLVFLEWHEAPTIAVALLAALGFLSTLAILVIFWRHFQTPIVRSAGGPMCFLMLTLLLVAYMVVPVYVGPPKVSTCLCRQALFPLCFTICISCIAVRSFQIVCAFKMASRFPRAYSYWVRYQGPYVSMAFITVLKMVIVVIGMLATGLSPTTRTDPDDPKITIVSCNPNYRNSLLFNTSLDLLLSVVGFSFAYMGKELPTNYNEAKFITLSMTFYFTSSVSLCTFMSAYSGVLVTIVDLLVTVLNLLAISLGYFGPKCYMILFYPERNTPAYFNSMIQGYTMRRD
T1 sequence (Q7RTX0 21-852): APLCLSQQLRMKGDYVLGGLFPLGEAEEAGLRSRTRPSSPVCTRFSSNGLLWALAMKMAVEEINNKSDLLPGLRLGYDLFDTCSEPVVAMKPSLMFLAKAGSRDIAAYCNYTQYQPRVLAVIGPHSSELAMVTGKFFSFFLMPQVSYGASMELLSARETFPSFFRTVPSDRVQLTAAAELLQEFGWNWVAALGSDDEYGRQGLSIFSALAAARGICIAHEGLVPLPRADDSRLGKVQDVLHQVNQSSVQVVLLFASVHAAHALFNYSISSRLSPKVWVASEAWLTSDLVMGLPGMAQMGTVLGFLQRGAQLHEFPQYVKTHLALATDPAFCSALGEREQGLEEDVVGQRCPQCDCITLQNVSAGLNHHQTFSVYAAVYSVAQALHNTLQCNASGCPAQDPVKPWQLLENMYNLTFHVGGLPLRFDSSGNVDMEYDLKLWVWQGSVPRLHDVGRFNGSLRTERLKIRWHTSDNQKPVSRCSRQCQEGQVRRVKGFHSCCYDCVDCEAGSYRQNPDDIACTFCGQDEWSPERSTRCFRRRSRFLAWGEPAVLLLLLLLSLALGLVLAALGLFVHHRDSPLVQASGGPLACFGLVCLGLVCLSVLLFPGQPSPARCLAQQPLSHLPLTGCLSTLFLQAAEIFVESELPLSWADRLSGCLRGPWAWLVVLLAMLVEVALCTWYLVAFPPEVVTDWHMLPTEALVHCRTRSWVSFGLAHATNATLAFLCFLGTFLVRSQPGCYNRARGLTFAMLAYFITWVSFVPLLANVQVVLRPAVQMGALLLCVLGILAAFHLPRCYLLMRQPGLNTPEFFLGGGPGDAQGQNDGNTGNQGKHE
Assay: Recombinant human taste receptor T1R2/T1R3 dependent cell based assay (calcium, Fluo4-AM fluorescence)
Protocol: For measurement of human T1R2/T1R3 taste receptor dependent activity a control cell line without sweet receptor based on HEK 293 and a cell line expressing the sweet receptor hT1R2/hT1R3 based on HEK 293, respectively, are seeded into assay plates and labelled with the calcium sensitive fluorescence dye Fluo4-AM in a culture medium. The potential modulators, e.g. the test compound, are added to the control cell line and to the cell line expressing the sweet receptor hT1R2/hT1R3, respectively.
A stable cell line based on HEK293 was termed HEKα15#17 served as control for functional Ga-protein and a stable cell line HEKGα15#17R2R3b#8 C6 served as cell line expressing the sweet receptor hT1R2/hT1R3 based on HEKGα15#17.
The cells were cultured in DMEM/HG and 10% FCS Gold, 4 mM L-Glutamin, 1,3 mg/ml Geneticin (HEKGα15#17) or the same medium additionally containing 6 μg/ml Blasticidin (HEKGα15#17R2R3b#8 C6). The medium for the assay was DMEM/HG (high glucose, 4.5 g/l glucose, Life Technologies) and 10% FCS Gold, 4 mM L-Glutamin (HEKGα15#17) or DMEM/LG (low glucose, 1 g/l glucose; Life Technologies) and 10% FCS Gold (HEKGα15#17R2R3b#8C6), respectively.
In order to evaluate the sweet receptor modulating activity of the compound of formula (Ia), compound of formula (Ia) was added to the cultures in a concentration of 25 μM in a volume of 50 μl. Controls were KH-buffer (Krebs HEPES-buffer: 118 mM NaCl, 4.7 mM KCl, 1.2 mM MgSO4, 1.2 mM KH2PO4, 4.2 mM NaHCO3, 1.3 mM CaCl2, 10 mM Hepes, pH 7.4) either without or with sweetness enhancer.
Further controls for function of G-protein and receptor were isoproterenol (1 μM, Sigma Aldrich), ionomycin (1 μM, Calbiochem) and ATP (1 μM, Applichem). […]
On day 2 the cells were seeded into assay plates at a density of 25,000 cells/well. Assay plates for fluorescence measurement (black clear bottom 96-cavity plates, Greiner Bio-One) were coated with poly-D-lysine. […]

Fluo4-AM fluorescence increase (cellular activation) (primary screening, receptor carrying cells only, FIG. 1 sixth bar): strong cellular activation
Structure (SMILES): CC(=O)N(O)CCCCCNC(=O)C(O)(CC(=O)O)CC(=O)NCCCN(O)C(C)=O (stereo not drawn) [compound of formula (Ia)]
Enhancement of the activity of fructose (sweetness enhancer activity in vitro) (25 μM with fructose (20 mM) versus KH buffer/fructose): fructose enhancer; also recorded: enhances the activity of fructose
Time response in the cell assay (measured over a period of 78 seconds, FIG. 2 / inserted graph): selective stimulation of receptor carrying cells
